From publication PMC10687260, “1,3-Diphenylureido hydroxamate as a promising scaffold for generation of potent antimalarial histone deacetylase inhibitors” (Scientific Reports, 2023) come the findings set out here.

The test system of one data set is P. falciparum 3D7. Put plainly: Antiplasmodial SYBR Green I proliferation assay, P. falciparum 3D7. The class given is cell-based, Plasmodium falciparum. As to conditions: Plasmodium falciparum, 3D7, 96 h, 96 h; values in brackets 95% confidence intervals; read-out: IC50 Pf3D7. In a few lines: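 SYBR Green I DNA-content proliferation assay on P. falciparum 3D7 and Dd2 in human O+ erythrocytes. Fluorescence after 1 h lysis with 0.02% SYBR Green I, scaled 0–100% against untreated parasites; curves by non-linear regression on means of three independent triplicate experiments.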

A further data set concerns the target T1, human HDAC1 (Homo sapiens, UniProt Q13547).
T1 construct: purchased ENZO Life Sciences AG (Lausen, CH)
The experiment in a line: In vitro HDAC enzymatic assay, HDAC1. The conditions noted are these: mean ± SD. The class given is biochemical. Here is the method:
(§1) In vitro HDAC enzymatic assays. Recombinant human HDAC1 and HDAC6 were purchased from ENZO Life Sciences AG (Lausen, CH) whereas HDAC8 was produced as described before. In vitro testing of the inhibitors in an enzymatic assay was carried out as described in previous publications[32],[33]. For HDAC1 a fluorogenic peptide derived from p53 (Ac-RHKK(Acetyl)-AMC) was used. For HDAC6, the substrate (Abz-SRGGK(thio-TFA)FFRR-NH2) was used as described before.

A further data set addresses T2, human HDAC6 (Homo sapiens, UniProt Q9UBN7).
T2 construct: purchased ENZO Life Sciences AG (Lausen, CH)
T2 sequence (Q9UBN7 1-1215): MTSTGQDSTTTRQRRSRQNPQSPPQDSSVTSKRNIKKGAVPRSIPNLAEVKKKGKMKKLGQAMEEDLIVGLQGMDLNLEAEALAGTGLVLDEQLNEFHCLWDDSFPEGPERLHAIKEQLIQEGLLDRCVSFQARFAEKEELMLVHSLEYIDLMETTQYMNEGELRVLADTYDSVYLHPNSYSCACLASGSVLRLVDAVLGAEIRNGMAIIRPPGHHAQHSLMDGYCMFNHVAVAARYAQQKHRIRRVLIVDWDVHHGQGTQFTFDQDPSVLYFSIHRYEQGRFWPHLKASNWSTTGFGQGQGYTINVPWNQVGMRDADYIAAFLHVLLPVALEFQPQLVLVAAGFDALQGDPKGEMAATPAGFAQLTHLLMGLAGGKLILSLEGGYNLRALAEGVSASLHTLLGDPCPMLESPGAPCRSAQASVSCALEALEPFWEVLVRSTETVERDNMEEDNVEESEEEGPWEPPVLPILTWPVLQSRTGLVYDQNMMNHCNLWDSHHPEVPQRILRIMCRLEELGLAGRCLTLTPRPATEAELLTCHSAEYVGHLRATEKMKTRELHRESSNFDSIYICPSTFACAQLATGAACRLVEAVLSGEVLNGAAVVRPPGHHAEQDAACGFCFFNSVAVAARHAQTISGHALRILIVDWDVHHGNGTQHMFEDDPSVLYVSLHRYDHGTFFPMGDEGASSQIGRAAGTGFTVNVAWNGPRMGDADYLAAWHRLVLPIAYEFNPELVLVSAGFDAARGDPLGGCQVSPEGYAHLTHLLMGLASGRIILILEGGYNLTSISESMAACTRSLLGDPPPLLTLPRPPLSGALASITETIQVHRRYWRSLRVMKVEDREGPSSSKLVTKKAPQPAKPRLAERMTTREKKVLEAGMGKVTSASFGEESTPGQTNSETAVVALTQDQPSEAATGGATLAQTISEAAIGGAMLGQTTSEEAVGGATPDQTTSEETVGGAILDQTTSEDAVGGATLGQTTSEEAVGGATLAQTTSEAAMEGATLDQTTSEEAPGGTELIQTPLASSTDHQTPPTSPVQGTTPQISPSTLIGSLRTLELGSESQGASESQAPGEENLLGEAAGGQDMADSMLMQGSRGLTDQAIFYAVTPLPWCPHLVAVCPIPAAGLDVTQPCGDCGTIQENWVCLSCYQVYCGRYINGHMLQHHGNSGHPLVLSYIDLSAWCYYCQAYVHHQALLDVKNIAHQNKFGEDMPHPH
Put plainly: In vitro HDAC enzymatic assay, HDAC6. The class given is biochemical. The conditions noted are these: for IC50: mean ± SD; for HDAC1/6 SI: ratio HsHDAC1 IC50/HsHDAC6 IC50. On the procedure:
as §1

The target of a further data set is T3, HDAC8 (Homo sapiens, UniProt Q9BY41).
T3 construct: made in house
T3 sequence (Q9BY41 1-377): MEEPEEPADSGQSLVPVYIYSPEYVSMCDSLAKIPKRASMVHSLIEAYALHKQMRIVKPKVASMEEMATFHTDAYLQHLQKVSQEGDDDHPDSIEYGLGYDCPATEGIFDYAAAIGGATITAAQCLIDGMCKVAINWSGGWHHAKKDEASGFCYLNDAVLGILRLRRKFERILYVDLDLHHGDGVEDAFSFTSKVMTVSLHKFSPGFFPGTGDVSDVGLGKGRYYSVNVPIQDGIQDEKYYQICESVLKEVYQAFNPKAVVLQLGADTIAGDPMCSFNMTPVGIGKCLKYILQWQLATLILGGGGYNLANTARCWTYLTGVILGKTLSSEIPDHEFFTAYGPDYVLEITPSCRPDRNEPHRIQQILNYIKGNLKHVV
Put plainly: In vitro HDAC enzymatic assay, HDAC8. As to conditions: mean ± SD. The class given is biochemical. On the procedure:
as §1

The next data set deals with T4, CYP450 2C9 (Homo sapiens, UniProt P11712).
T4 construct: 10 μM compound was incubated with human liver microsomes and selective marker substrates; from tissue; host or cells: human liver microsomes
T4 sequence (P11712 whole entry): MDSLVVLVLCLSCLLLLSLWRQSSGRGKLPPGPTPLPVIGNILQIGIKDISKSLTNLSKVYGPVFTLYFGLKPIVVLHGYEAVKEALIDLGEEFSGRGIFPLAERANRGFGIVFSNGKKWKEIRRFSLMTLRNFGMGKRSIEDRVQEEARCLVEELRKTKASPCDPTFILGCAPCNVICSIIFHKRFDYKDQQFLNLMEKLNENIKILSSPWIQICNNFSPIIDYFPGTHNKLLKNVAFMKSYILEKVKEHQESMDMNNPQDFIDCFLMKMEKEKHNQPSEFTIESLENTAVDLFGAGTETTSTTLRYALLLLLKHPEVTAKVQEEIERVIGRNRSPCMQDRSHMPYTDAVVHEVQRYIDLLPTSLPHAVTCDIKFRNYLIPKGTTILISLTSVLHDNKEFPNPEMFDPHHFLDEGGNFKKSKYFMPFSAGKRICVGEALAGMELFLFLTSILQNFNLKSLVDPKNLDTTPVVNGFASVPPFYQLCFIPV
The experiment in a line: CYP450 inhibition in human liver microsomes, 2C9. The class given is in vitro ADME. The conditions noted are these: 10 µM. Background: Liver microsomes are vesicles of endoplasmic reticulum, rich in cytochrome P450 enzymes.

The next data set addresses T5, CYP450 2D6 (Homo sapiens, UniProt P10635).
T5 construct: 10 μM compound was incubated with human liver microsomes and selective marker substrates; from tissue; host or cells: human liver microsomes
Put plainly: CYP450 inhibition in human liver microsomes, 2D6. The class given is in vitro ADME. As to conditions: 10 µM.

Data set [1] is described as follows: Stability in human hepatic microsomes. The conditions noted are these: for half-life at 1 µM: 1 mg/mL hepatic microsomes, 1 µM compound, read-out: Half-life t1/2 Human; for microsomal CLint at 1 µM: read-out: Intrinsic clearance Clint Human. The class given is in vitro ADME. From the text: (§2) DMPK evaluation. […].
The nature of data set [2]: Stability in mouse hepatic microsomes. The class given is in vitro ADME. As to conditions: for half-life at 1 µM: 1 mg/mL hepatic microsomes, 1 µM compound, read-out: Half-life t1/2 Mouse; for microsomal CLint at 1 µM: read-out: Intrinsic clearance Clint Mouse.
From the text: as §2

As usually defined, the IC50 is the concentration that gives 50% inhibition.

T1 sequence (Q13547 whole entry): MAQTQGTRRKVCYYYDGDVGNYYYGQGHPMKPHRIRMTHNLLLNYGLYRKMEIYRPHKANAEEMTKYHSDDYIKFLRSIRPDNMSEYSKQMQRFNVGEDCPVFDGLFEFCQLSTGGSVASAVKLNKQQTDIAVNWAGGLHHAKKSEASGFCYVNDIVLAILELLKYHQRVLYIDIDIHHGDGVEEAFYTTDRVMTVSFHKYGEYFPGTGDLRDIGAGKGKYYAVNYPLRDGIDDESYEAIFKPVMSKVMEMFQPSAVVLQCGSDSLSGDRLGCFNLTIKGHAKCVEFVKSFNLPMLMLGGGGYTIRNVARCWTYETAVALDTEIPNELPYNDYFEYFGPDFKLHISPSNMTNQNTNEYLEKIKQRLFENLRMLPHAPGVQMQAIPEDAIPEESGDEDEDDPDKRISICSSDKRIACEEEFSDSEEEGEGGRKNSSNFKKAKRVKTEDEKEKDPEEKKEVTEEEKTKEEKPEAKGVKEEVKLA
T5 sequence (P10635 whole entry): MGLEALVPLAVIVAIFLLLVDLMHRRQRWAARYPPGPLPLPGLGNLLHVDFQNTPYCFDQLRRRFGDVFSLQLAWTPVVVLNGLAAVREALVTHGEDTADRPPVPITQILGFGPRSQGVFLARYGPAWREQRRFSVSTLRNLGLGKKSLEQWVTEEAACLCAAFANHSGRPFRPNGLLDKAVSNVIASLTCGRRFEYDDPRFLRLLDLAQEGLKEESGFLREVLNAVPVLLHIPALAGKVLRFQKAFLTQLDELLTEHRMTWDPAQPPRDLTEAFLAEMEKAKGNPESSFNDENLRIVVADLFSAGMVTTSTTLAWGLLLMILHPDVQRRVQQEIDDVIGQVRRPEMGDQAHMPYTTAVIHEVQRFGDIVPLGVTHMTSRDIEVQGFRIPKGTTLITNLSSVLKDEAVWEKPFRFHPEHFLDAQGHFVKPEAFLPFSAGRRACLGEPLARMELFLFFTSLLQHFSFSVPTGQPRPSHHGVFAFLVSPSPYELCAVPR

Consider `COc1ccc(NC(=O)Nc2ccc(/C=C/C(=O)NO)cc2)cc1` [Compound 6c, (E)-N-hydroxi-3-(4-(3-(4-methoxyphenyl)ureido)phenyl)acrylamide], for which the concentration for half-maximal inhibition (IC50) with P. falciparum 3D7 is 1030 nM; against human HDAC1 it was 1.58 ± 0.0622 µM; on human HDAC6, 7.7 ± 0.9 nM; at HDAC8 it was 63.7 ± 4.2 nM. Also, the “HDAC1/6 SI” value on human HDAC6 is given as 206. Also, the “CYP450% inhibition @ 10 µM 2C9” value on CYP450 2C9 is reported as 18%. Besides, at CYP450 2D6, the “CYP450% inhibition @ 10 µM 2D6” value is given as “*^b (Inhibition < 10%)”. Moreover, the half-life at 1 µM in data set [1] is 39.6 min; in data set [2] it was 4.4 min. Further, the microsomal CLint at 1 µM in data set [1] was determined as 17 µL/min/mg; in data set [2], 158 µL/min/mg.
Consider `COc1ccc(NC(=O)Nc2ccc(CCC(=O)NO)cc2)cc1` [Compound 7c, N-hydroxy-3-(4-(3-(4-methoxyphenyl)ureido)phenyl)propanamide], for which the IC50 was 5820 nM in the data set on P. falciparum 3D7, 3.56 ± 0.185 µM on human HDAC1, 151 ± 11.1 nM against human HDAC6 and 362 ± 22.7 nM on HDAC8. The “HDAC1/6 SI” value on human HDAC6 is 23. Besides, the “CYP450% inhibition @ 10 µM 2C9” value on CYP450 2C9 was “* (Inhibition < 10%)”. Also, at CYP450 2D6, the “CYP450% inhibition @ 10 µM 2D6” value is on record as “* (Inhibition < 10%)”. The half-life at 1 µM in data set [1] is over 120 min; in data set [2], 4.1 min. The microsomal CLint at 1 µM was under 6 µL/min/mg in data set [1] and 169 µL/min/mg in data set [2].
As to `O=C(Nc1ccccc1)Nc1ccc(C(=O)NO)cc1` [Compound 8a, N-hydroxy-4-(3-phenylureido)bezamide], the IC50 was 560 nM with P. falciparum 3D7, 5.33 ± 0.366 µM against human HDAC1, 8.5 ± 0.8 nM on human HDAC6 and 93.5 ± 5.3 nM at HDAC8. In addition, the “HDAC1/6 SI” value on human HDAC6 is 627. The “CYP450% inhibition @ 10 µM 2C9” value at CYP450 2C9 is listed as “* (Inhibition < 10%)”. Further, the “CYP450% inhibition @ 10 µM 2D6” value at CYP450 2D6 is on record as “* (Inhibition < 10%)”. Moreover, the values for the half-life at 1 µM in data set [1] and in data set [2] were over 120 min and 10.1 min, respectively. For the same compound, the microsomal CLint at 1 µM in data set [1] is under 6 µL/min/mg; in data set [2], 69 µL/min/mg.
In the case of `O=C(Nc1ccc(Cl)cc1)Nc1ccc(C(=O)NO)cc1` [Compound 8b, 4-(3-(4-chlorophenyl)ureido)-N-hydroxybenzamide], the IC50 in the data set with P. falciparum 3D7 amounted to 1310 nM; against human HDAC1, 5.24 ± 0.476 µM; on human HDAC6, 15 ± 0.4 nM; at HDAC8, 85.1 ± 9.6 nM. Also, the “HDAC1/6 SI” value on human HDAC6 is given as 349. Also, the “CYP450% inhibition @ 10 µM 2C9” value at CYP450 2C9 is “* (Inhibition < 10%)”. Also, the “CYP450% inhibition @ 10 µM 2D6” value on CYP450 2D6 is listed as “* (Inhibition < 10%)”. Further, the results for the half-life at 1 µM in data set [1] and in data set [2] were 66 min and 4 min, respectively. Further, the microsomal CLint at 1 µM in data set [1] is 10 µL/min/mg; in data set [2], 173 µL/min/mg.
With `COc1ccc(NC(=O)Nc2ccc(C(=O)NO)cc2)cc1` [Compound 8c, N-hydroxy-4-(3–4(-methoxyphenyl)ureido)benzamide], the half-maximal inhibitory concentration (IC50) stood at 740 nM in the data set on P. falciparum 3D7, 6.18 ± 0.231 µM at human HDAC1, 15.9 ± 0.4 nM at human HDAC6 and 136 ± 8.2 nM against HDAC8. In addition, the “CYP450% inhibition @ 10 µM 2C9” value at CYP450 2C9 is “* (Inhibition < 10%)”. Besides, at CYP450 2D6, the “CYP450% inhibition @ 10 µM 2D6” value is on record as “* (Inhibition < 10%)”. Moreover, the values for the half-life at 1 µM in data set [1] and in data set [2] were 98.8 min and 2.5 min, respectively. For the same compound, the microsomal CLint at 1 µM was found to be 7 µL/min/mg in data set [1] and 281 µL/min/mg in data set [2].
Consider `O=C(Nc1ccc(C(=O)NO)cc1)Nc1ccc([N+](=O)[O-])cc1` [Compound 8d, N-hydroxy-4-(3-(4-nitrophenyl)ureido)benzamide], for which the IC50 was determined as 550 nM with P. falciparum 3D7, 3.74 ± 0.232 µM on human HDAC1, 13.4 ± 0.5 nM against human HDAC6 and 68.1 ± 6.8 nM against HDAC8. The “HDAC1/6 SI” value on human HDAC6 turned out to be 279. Moreover, at CYP450 2C9, the “CYP450% inhibition @ 10 µM 2C9” value is given as “* (Inhibition < 10%)”. Besides, the “CYP450% inhibition @ 10 µM 2D6” value at CYP450 2D6 is reported as “* (Inhibition < 10%)”. The half-life at 1 µM is over 120 min in data set [1] and 13.8 min in data set [2]. Further, the microsomal CLint at 1 µM in data set [1] is under 6 µL/min/mg; in data set [2], 50 µL/min/mg.
